Results from publication PMC5515969, “Effects of 31 FDA approved small-molecule kinase inhibitors on isolated rat liver mitochondria” (Archives of Toxicology, 2016).
Read-outs that look alike come from different tables or passages of the source.

Tests used:
[1] = tested on: isolated rat liver mitochondria; experiment: Mitochondrial inner membrane potential (MMP), Rhodamine 123; assay type: biochemical; settings: difference in signal between KI and DMSO treated samples at the end of experiments
Source text: Fig. 3 KI effects on mitochondrial inner membrane potential (MMP). […] In a, c, data are means and standard derivations from three separate experiments. *p < 0.05 as compared to DMSO-treated samples at the end of experiments. In b, data are means of two independent experiments

[2] = tested on: isolated rat liver mitochondria; experiment: Mitochondrial ROS production (CM-H2DCFDA); settings: DMSO treated samples set as 1
[3] = cited from earlier work
[4] = tested on: isolated rat liver mitochondria; settings: positive control alamethicin treated samples
RCC IV = RCC IV activity in submitochondrial particles; assay type: biochemical, rat; design: key to RCC IV at 50XCmax / RCC IV at 100XCmax: activity relative to DMSO-treated controls (control set as 1 = 100%); settings: 50XCmax; relative to DMSO treated samples; in %
Method in brief: (§1)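 Absorbance kinetics: A340 (RCC I, V) and A600 (RCC II) read each minute over 6 min, A550 (RCC III, IV) every 10 s over 2 min; RCC I taken as […]. Particles (1 mg/ml) pretreated 15 min with compound; DMSO-treated activity = 1.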

[5] = tested on: isolated rat liver mitochondria; experiment: Mitochondrial oxygen consumption (glutamate/malate or succinate driven, state 4 and state 3); assay type: biochemical; settings: DMSO treated samples set as 1; on State 3 respiration driven by succinate at 10XCmax: key: 0 indicates that the drug had no effects (negative); on State 3 respiration driven by succinate at 1XCmax: key: 0 indicates that the drug had no effects (negative)
Method in brief: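 Oxygen uptake on glutamate/malate or on succinate defined state 4; ADP added 3 min later gave state 3. Mitochondria isolated from rat liver by differential centrifugation, adjusted to 1 mg/ml and pretreated 5 min with inhibitor (0.1% DMSO final). Values relative to DMSO control, set to 1.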

[6] = cited from earlier work; remark: listed apart in the source
RCC III = RCC III activity in submitochondrial particles; assay type: biochemical, rat; design: key to RCC III at 100XCmax: activity relative to DMSO-treated controls (control set as 1 = 100%); settings: 100XCmax; relative to DMSO treated samples
Method in brief: as §1

[7] = tested on: isolated rat liver mitochondria; experiment: Mitochondrial swelling (absorbance at 535 nm); assay type: biochemical; settings: difference in signal between KI and DMSO treated samples at the end of experiments; on Swelling 5XCmax: key: 0 indicates that the drug had no effects (negative)

CNC(=O)c1ccccc1Sc1ccc2c(/C=C/c3ccccn3)n[nH]c2c1 [Axitinib]
MMP measured by Rhodamine 123 at 1XCmax ([1]; 1XCmax): 0 | MMP measured by Rhodamine 123 at 2.5XCmax ([1]; 2.5XCmax): 0 | MMP measured by Rhodamine 123 at 5XCmax ([1]; 5XCmax): 0 | MMP measured by Rhodamine 123 at 10XCmax ([1]; 10XCmax): 0 | MMP measured by Rhodamine 123 at 20XCmax ([1]; 20XCmax): 0 | MMP measured by Rhodamine 123 at 30XCmax ([1]; 30XCmax): 0 | MMP measured by Rhodamine 123 at 50XCmax ([1]; 50XCmax): 0 | MMP measured by Rhodamine 123 at 100XCmax ([1]; 100XCmax): 0 | ROS measured by CM-H2DCFDA at 1XCmax ([2]; 1XCmax): 0 | ROS measured by CM-H2DCFDA at 2.5XCmax ([2]; 2.5XCmax): 0 | ROS measured by CM-H2DCFDA at 5XCmax ([2]; 5XCmax): 0 | ROS measured by CM-H2DCFDA at 10XCmax ([2]; 10XCmax): 0 | ROS measured by CM-H2DCFDA at 20XCmax ([2]; 20XCmax): 0 | ROS measured by CM-H2DCFDA at 30XCmax ([2]; 30XCmax): 0 | ROS measured by CM-H2DCFDA at 50XCmax ([2]; 50XCmax): 0 | ROS measured by CM-H2DCFDA at 100XCmax ([2]; 100XCmax): 0 | Cmax ([3]; human therapeutic Cmax at FDA recommended dosages, ref product labeling and drug approval packages at the official FDA website): 70 nM | Cmax ([3]; therapeutic maximal blood concentration, ref product labeling): 27.8 ng/mL | Cytochrome c release 1XCmax ([4]; 1XCmax): 0 | Cytochrome c release 2.5XCmax ([4]; 2.5XCmax): 0 | Cytochrome c release 5XCmax ([4]; 5XCmax): 0 | Cytochrome c release 10XCmax ([4]; 10XCmax): 0 | Cytochrome c release 20XCmax ([4]; 20XCmax): 0 | Cytochrome c release 30XCmax ([4]; 30XCmax): 0 | Cytochrome c release 50XCmax ([4]; 50XCmax): 0 | Cytochrome c release 100XCmax ([4]; 100XCmax): 0 | RCC IV at 50XCmax (RCC IV): 0 | State 3 respiration driven by glutamate/malate at 1XCmax ([5]; 1XCmax): 0 | State 3 respiration driven by succinate at 1XCmax ([5]; 1XCmax): 0 | State 4 respiration driven by glutamate/malate at 1XCmax ([5]; 1XCmax): 0 | State 4 respiration driven by succinate at 1XCmax ([5]; 1XCmax): 0 | State 3 respiration driven by glutamate/malate at 2.5XCmax ([5]; 2.5XCmax): 0 | State 3 respiration driven by succinate at 2.5XCmax ([5]; 2.5XCmax): 0 | State 4 respiration driven by glutamate/malate at 2.5XCmax ([5]; 2.5XCmax): 0 | State 4 respiration driven by succinate at 2.5XCmax ([5]; 2.5XCmax): 0 | State 3 respiration driven by glutamate/malate at 5XCmax ([5]; 5XCmax): 0 | State 3 respiration driven by succinate at 5XCmax ([5]; 5XCmax): 0 | State 4 respiration driven by glutamate/malate at 5XCmax ([5]; 5XCmax): 0 | State 4 respiration driven by succinate at 5XCmax ([5]; 5XCmax): 0 | State 3 respiration driven by glutamate/malate at 10XCmax ([5]; 10XCmax): 0 | State 3 respiration driven by succinate at 10XCmax ([5]; 10XCmax): 0 | State 4 respiration driven by glutamate/malate at 10XCmax ([5]; 10XCmax): 0 | State 4 respiration driven by succinate at 10XCmax ([5]; 10XCmax): 0 | State 3 respiration driven by glutamate/malate at 20XCmax ([5]; 20XCmax): 0 | State 3 respiration driven by succinate at 20XCmax ([5]; 20XCmax): 0 | State 4 respiration driven by glutamate/malate at 20XCmax ([5]; 20XCmax): 0 | State 4 respiration driven by succinate at 20XCmax ([5]; 20XCmax): 0 | State 3 respiration driven by glutamate/malate at 30XCmax ([5]; 30XCmax): 0 | State 3 respiration driven by succinate at 30XCmax ([5]; 30XCmax): 0 | State 4 respiration driven by glutamate/malate at 30XCmax ([5]; 30XCmax): 0 | State 4 respiration driven by succinate at 30XCmax ([5]; 30XCmax): 0 | State 3 respiration driven by glutamate/malate at 50XCmax ([5]; 50XCmax): 0 | State 3 respiration driven by succinate at 50XCmax ([5]; 50XCmax): 0 | State 4 respiration driven by glutamate/malate at 50XCmax ([5]; 50XCmax): 0 | State 4 respiration driven by succinate at 50XCmax ([5]; 50XCmax): 0 | State 3 respiration driven by glutamate/malate at 100XCmax ([5]; 100XCmax): 0 | State 3 respiration driven by succinate at 100XCmax ([5]; 100XCmax): 0 | State 4 respiration driven by glutamate/malate at 100XCmax ([5]; 100XCmax): 0 | State 4 respiration driven by succinate at 100XCmax ([5]; 100XCmax): 0 | DILI potential (based on labeling) ([6]; 1 = DILI positive, 0 = negative, ref product labeling): 1 | Labeling for DILI ([6]; BBW: black box warning, W&P: Warnings and Precautions, ref product labeling): W&P: ALT↑ | labeling for DILI ([6]; W&P warnings and precautions, BBW black box warnings, ref FDA product labeling): W&P: ALT↑/monitoring | DILI potential (based on labeling) ([6]; ref FDA product labeling): 1 | RCC III at 100XCmax (RCC III): 0 | Swelling 1XCmax ([7]; 1XCmax): 0 | Swelling 2.5XCmax ([7]; 2.5XCmax): 0 | Swelling 5XCmax ([7]; 5XCmax): 0 | Swelling 10XCmax ([7]; 10XCmax): 0 | Swelling 20XCmax ([7]; 20XCmax): 0 | Swelling 30XCmax ([7]; 30XCmax): 0 | Swelling 50XCmax ([7]; 50XCmax): 0 | Swelling 100XCmax ([7]; 100XCmax): 0
